“And” between values parts separate entries of the source, which are not always exact repeats. Identical values can stand only once. “Also recorded” adds a separate entry of the source.
What was measured:
[1] = SARD compound serum concentrations in Hershberger rats (LC-MS/MS); conditions: for Conc of 1065: serum of individual rats, 24-30 hours after the last dose, standards in nM
[2] = HLM metabolism (half-life); type: in vitro ADME, human; conditions: for HLM Metabolism (H.L. min): human liver microsomes half-life
Procedure: (§1) Table 4 reports the in vitro efficacy (transactivation/degradation) and metabolism (rat liver microsomes (RLM) and human LM (HLM) half-lives) data, in vivo efficacy (S.V. and prostate % diff in rats) and serum concentration in rats for all the compounds in the 20 mg/kg Hershberger experiment. […].

[3] = RLM metabolism (half-life); type: in vitro ADME; conditions: rat liver microsomes half-life
Procedure: as §1

[4] = tested on: Intact Sprague Dawley rats; experiment: Hershberger assay, seminal vesicles and prostate weights; type: in vivo, rat
Procedure: Dosing solutions were prepared in 20% DMSO+80% PEG. Fourteen days after the initiation of treatment, animals were sacrificed and tissue weights were recorded. Body weights were measured on day 1 and at the time of sacrifice. Tissue weights were normalized to body weight and represented as percent change from vehicle-treated animals.

full length AR = experiment: LNCaP or AD1 degradation (full length AR, Western blot); type: cell-based
Procedure: The numbers under each lane represents the % change from vehicle. The bands were quantified using ImageJ® software. For each lane, the AR band was divided by GAPDH band and the % difference from vehicle was calculated and represented under each lane. The numbers shown are 0 (no degradation) or represented as decreases in AR levels normalized for GAPDH levels (some values represented as positive but still indicate degradation).
Method: LNCaP or AD1 cells expressing full length AR were plated at 750,000-1,000,000 cells/well of a 6 well plate in growth medium (RPMI+10% FBS). Twenty four hours after plating, medium was changed to RPMI+1% csFBS without phenol red and maintained in this medium for 2 days. […] Protein was extracted using salt-containing lysis buffer with three freeze-thaw cycles. Protein concentration was estimated and five microgram of total protein was loaded on a SDS-PAGE, fractionated, and transferred to a PVDF membrane. […]
The numbers under each lane represents the % change from vehicle. The bands were quantified using ImageJ software. For each lane, the AR band was divided by GAPDH band and the % difference from vehicle was calculated and represented under each lane The numbers shown are 0 (no degradation) or represented as decreases in AR levels normalized for GAPDH levels (some values represented as positive but still indicate degradation).

AR wildtype (wt) = AR wildtype (wt) (Homo sapiens, UniProt P10275); experiment: Transactivation assay with wt AR (GRE-LUC luciferase); type: cell-based
Procedure: COS7 cells were transfected with 0.25 μg GRE-LUC, 0.01 g CMV-renilla LUC, and 25 ng CMV-hAR using Lipofectamine in OptiMEM® medium. […] Firefly luciferase values were normalized to renilla luciferase values.
Firefly luciferase values were normalized to renilla luciferase values.
Human AR cloned into CMV vector backbone was used for the transactivation study. HEK-293 cells were plated at 120,000 cells per well of a 24 well plate in DME+5% csFBS. […] Data are represented as IC50 obtained from four parameter logistics curve.

hAR-LBD (633-919) = target: T1, hAR-LBD (633-919) (Homo sapiens, UniProt P10275); experiment: Ligand binding assay, GST-AR-LBD with [3H]mibolerone
T1 construct: GST (N); made in house
T1 sequence (P10275 634-920): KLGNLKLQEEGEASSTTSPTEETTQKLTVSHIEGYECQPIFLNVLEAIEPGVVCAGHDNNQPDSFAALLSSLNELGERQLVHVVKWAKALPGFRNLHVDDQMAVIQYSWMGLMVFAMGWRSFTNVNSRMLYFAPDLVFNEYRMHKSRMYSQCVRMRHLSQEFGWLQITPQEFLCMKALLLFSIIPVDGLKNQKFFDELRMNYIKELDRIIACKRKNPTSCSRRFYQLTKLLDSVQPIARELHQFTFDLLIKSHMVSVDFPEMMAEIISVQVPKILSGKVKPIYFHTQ
Procedure: Objective: To determine SARDs binding affinity to the AR-LBD.
Non-specific binding was then subtracted from total binding to determine specific binding and non-linear regression for ligand binding curve with one site saturation to determine the Kd of mibolerone.
Following incubation, the ligand bound AR-LBD complex was isolated using Bio Gel HT® hydroxyapatite, washed and counted in a scintillation counter after adding scintillation cocktail.

PR = target: T2, PR (Homo sapiens, UniProt P06401); conditions: positive control
T2 sequence (P06401 1-933): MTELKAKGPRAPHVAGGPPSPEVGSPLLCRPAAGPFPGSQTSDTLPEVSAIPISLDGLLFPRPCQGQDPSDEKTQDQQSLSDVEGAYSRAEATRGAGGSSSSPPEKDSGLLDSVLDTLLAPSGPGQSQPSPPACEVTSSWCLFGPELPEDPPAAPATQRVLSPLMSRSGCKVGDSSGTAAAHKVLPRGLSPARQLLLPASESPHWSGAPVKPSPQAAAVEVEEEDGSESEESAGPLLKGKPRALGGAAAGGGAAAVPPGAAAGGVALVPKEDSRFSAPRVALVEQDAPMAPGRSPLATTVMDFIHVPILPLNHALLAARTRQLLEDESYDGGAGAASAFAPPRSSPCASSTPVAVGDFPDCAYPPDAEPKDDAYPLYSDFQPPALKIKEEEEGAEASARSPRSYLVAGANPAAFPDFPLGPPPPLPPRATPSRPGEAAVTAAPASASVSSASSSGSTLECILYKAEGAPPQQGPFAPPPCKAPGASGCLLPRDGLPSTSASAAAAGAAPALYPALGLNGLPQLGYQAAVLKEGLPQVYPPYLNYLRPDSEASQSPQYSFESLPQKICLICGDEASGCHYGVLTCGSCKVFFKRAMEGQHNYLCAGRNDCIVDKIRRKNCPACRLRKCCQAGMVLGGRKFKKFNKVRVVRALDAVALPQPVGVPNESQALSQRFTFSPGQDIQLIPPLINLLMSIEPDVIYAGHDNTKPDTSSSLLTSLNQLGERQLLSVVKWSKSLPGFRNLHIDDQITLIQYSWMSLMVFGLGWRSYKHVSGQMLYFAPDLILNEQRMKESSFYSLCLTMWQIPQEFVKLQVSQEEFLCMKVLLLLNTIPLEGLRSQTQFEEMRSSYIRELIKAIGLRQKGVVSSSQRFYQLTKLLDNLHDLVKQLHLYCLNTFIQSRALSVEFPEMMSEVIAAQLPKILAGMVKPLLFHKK

[5] = Table 2, rats, 20 mg/kg daily for 13 days
[6] = 20 mg/kg Hershberger experiment

Sequence of AR wildtype (wt) (P10275 whole entry, the tested form may be a part): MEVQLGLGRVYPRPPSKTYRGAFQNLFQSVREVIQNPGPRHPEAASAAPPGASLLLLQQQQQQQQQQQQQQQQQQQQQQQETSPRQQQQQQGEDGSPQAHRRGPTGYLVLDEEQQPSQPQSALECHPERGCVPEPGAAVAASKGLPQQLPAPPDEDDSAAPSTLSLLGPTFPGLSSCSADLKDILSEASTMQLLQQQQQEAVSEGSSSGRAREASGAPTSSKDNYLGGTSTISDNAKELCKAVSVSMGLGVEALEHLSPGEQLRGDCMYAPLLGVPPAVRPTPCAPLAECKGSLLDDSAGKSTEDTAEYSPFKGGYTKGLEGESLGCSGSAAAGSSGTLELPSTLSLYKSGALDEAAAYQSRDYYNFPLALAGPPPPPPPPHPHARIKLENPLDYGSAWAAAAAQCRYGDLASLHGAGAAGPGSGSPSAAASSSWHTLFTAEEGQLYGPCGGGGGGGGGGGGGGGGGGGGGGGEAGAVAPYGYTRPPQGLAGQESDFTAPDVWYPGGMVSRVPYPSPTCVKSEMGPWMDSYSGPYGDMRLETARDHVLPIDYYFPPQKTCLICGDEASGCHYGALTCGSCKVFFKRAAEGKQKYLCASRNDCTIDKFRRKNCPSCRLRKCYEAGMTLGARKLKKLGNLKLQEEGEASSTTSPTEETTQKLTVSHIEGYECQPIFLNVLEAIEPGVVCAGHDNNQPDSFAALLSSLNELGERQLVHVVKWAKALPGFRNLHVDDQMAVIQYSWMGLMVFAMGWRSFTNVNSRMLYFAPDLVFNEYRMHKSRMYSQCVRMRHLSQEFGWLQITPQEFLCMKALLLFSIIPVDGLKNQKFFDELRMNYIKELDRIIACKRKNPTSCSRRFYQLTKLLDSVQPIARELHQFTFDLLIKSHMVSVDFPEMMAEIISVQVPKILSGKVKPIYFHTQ

SMILES: C[C@](O)(Cn1cc(F)cn1)C(=O)Nc1ccc(C#N)c(C(F)(F)F)c1.O=C(O)C(O)C(O)C(=O)O [1002 tartarate]
- Serum conc. [1, 5]: 12.4 nM

SMILES: C[C@](O)(Cn1ccc2cc(F)ccc21)C(=O)Nc1ccc(C#N)c(C(F)(F)F)c1 [Compound 11]
- HLM Metabolism (H.L. min) [2]: 6 min

SMILES: C[C@](O)(Cn1cc(F)cn1)C(=O)Nc1ccc(C#N)c(C(F)(F)F)c1 [Compound 1002]
- Serum conc. [1, 5]: 9.3 nM

SMILES: C[C@](O)(Cn1cc(C(F)(F)F)cn1)C(=O)Nc1ccc(C#N)c(C(F)(F)F)c1 [Compound 1017]
- HLM Metabolism (H.L. min) [2]: 400 min
- RLM Metabolism (H.L. min) [3]: 400 min

SMILES: C[C@](O)(Cn1cc(F)cn1)C(=O)Nc1cnc(C#N)c(C(F)(F)F)c1 [Compound 1022]
- Serum conc. [1, 5]: 64 nM
- Serum conc. ([1]; Table 4, rats, 20 mg/kg): 33 nM
- HLM Metabolism (H.L. min) [2]: 82 min
- RLM Metabolism (H.L. min) [3]: 78 min

SMILES: C[C@](O)(Cn1cc(C#N)cn1)C(=O)Nc1ccc(C#N)c(C(F)(F)F)c1 [Compound 1048]
- HLM Metabolism (H.L. min) [2]: 400 min
- RLM Metabolism (H.L. min) [3]: 86 min

SMILES: C[C@](O)(Cn1cc(Br)c(F)n1)C(=O)Nc1ccc(C#N)c(C(F)(F)F)c1 [Compound 1058, (S)-3-(4-Bromo-3-fluoro-1H-pyrazol-1-yl)-N-(4-cyano-3-(trifluoromethyl)phenyl)-2-hydroxy-2-methylpropanamide]
- HLM Metabolism (H.L. min) [2]: 138 min
- RLM Metabolism (H.L. min) [3]: 400 min

SMILES: C[C@](O)(Cn1cc(C#N)cn1)C(=O)Nc1cnc(C#N)c(C(F)(F)F)c1 [Compound 1065]
- (Prostate) % diff [4, 6]: .58%
- (S.V.) % diff [4, 6]: .88%
- Seminal vesicles weight reduction / in vivo AR antagonism, in words ([4]; 20 mg/kg, compared to 1002 or castration): full AR antagonism in vivo; also recorded: reached castration levels; also recorded: significantly improved efficacy
- Prostate weight reduction, improved efficacy compared to 1002 ([4]; FIGS. 7C and 7D): approximately 45%
- Serum conc. ([1]; Table 4, rats, 20 mg/kg): 561 nM
- Conc of 1065 ([1]; 1 mg/kg, 1 mg/kg): 81.58 and 87.25 and 120.1244 and 134.5505 and 129.9323
- Conc of 1065 ([1]; 5 mg/kg, 5 mg/kg): 630.4879 and 691.1901 and 485.4264 and 967.3936 and 798.7984
- Conc of 1065 ([1]; 10 mg/kg, 10 mg/kg): 637.641 and 915.1312 and 824.8076 and 681.9936 and 795.917
- Conc of 1065 ([1]; 20 mg/kg, 20 mg/kg): 1286.902 and 1298.179 and 1360.687 and 1397.834 and 1193.986
- HLM Metabolism, % metabolized after 60 min ([2]; after 60 min): 10%
- HLM Metabolism (H.L. min) [2]: STABLE
- RLM Metabolism (H.L. min) [3]: 84 min

SMILES: C[C@](O)(Cn1cc(Cl)c(Br)n1)C(=O)Nc1ccc(C#N)c(C(F)(F)F)c1 [Compound 1066]
- HLM Metabolism (H.L. min) [2]: 319 min
- RLM Metabolism (H.L. min) [3]: 300 min

SMILES: C[C@@H](Cn1cc(F)cn1)NC(=O)c1ccc(C#N)c(C(F)(F)F)c1 [Compound 1068, (S)-4-Cyano-N-(1-(4-fluoro-1H-pyrazol-1-yl)propan-2-yl)-3-(trifluoromethyl)benzamide]
- SARD Activity Full Length % inhibition at 1 μM (full length AR; first of two values in the cell, 1 μM): 62%
- SARD Activity Full Length % inhibition at 10 μM (full length AR; second of two values in the cell, 10 μM): 96%
- IC50 (AR wildtype (wt)): 417 nM
- wtAR Binding Ki (nM) (DHT = 1 nM) (hAR-LBD (633-919)): no binding

SMILES: CNC(=O)c1ccc(N2C(=S)N(c3ccc(C#N)c(C(F)(F)F)c3)C(=O)C2(C)C)cc1F [Enzalutamide, reference compound]
- Seminal vesicles weight reduction compared to 1002, in words ([4]; enzalutamide 30 mg/kg): marginally improved

SMILES: CC(=O)[C@H]1CC[C@H]2[C@@H]3CCC4=CC(=O)CC[C@]4(C)[C@H]3CC[C@]12C [progesterone]
- PR agonism, in words (PR): potent and full efficacy agonist activity

Source: patent US20210196678A1, “SELECTIVE ANDROGEN RECEPTOR DEGRADER (SARD) LIGANDS AND METHODS OF USE THEREOF” (University of Tennessee Research Foundation, priority 2018, published 2021)
